We go through 17 compounds from patent publication US10022453B2 (BAYER PHARMA AKTIENGESELLSCHAFT, priority 2013, dated 2018).

The target in data set [1] is T1, human kinesin spindle protein KSP/Eg5 (Homo sapiens, UniProt P52732).
T1 construct: The motor domain of the human kinesin spindle protein KSP/Eg5; purchased tebu-bio/Cytoskeleton Inc 027EG01-XL
T1 sequence (P52732 18-359 limits assumed): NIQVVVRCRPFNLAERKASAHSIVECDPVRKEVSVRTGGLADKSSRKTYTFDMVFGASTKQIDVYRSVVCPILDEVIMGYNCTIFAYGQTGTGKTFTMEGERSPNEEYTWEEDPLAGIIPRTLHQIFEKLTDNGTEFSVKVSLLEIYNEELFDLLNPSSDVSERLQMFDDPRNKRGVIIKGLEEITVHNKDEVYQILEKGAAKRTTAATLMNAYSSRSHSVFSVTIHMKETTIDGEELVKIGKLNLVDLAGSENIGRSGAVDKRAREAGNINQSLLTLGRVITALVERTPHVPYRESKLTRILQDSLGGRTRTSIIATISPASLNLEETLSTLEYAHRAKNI
In words: Inhibition of the kinesin spindle protein KSP/Eg5 (ATPase, malachite green). In kind it is biochemical. Conditions: 10 nM KSP motor domain, 500 μM ATP, 2 h RT. The procedure:
C-1b Determination of the Inhibition of the Kinesin Spindle Protein KSP/Eg5 by Selected Examples
The motor domain of the human kinesin spindle protein KSP/Eg5 (from tebu-bio/Cytoskeleton Inc, No. 027EG01-XL) is incubated at a concentration of 10 nM with 50 μg/ml taxol- (from Sigma No. T7191-5MG) stabilized microtubuli (bovine or porcine, from tebu-bio/Cytoskeleton Inc) for 5 min at RT in 15 mM PIPES, pH 6.8 (5 mM MgCl2 and 10 mM DTT, from Sigma). The freshly prepared mixture is aliquoted into a 384-well MTP. The inhibitors to be examined at concentrations of 1.0×10^−6 M to 1.0×10^−13 and ATP (final concentration 500 μM, from Sigma) are then added. Incubation is at RT for 2 h. ATPase activity is detected by detecting the inorganic phosphate formed using malachite green (from Biomol). […] The individual data of the dose-activity curve are eight-fold determinations. The IC50 values are means of three independent experiments.

A short description of data set [2]: Cell permeability, flux assay using Caco-2 cells. The conditions noted are these: human, Caco-2. The protocol: C-3 In Vitro Tests for Determining Cell Permeability
The cell permeability of a substance can be investigated by means of in vitro testing in a flux assay using Caco-2 cells [M. D. Troutman and D. R. Thakker, Pharm. […] For this purpose, the cells were cultured for 15-16 days on 24-well filter plates. For the determination of permeation, the respective working example was applied in a HEPES buffer to the cells either apically (A) or basally (B) and incubated for 2 hours. After 0 hours and after 2 hours, samples were taken from the cis and trans compartments. The samples were separated by HPLC (Agilent 1200, Böblingen, Germany) using reverse phase columns.
Of critical importance for toxophores which are released intracellularly is the permeability from B to A [Papp(B-A)] and the ratio of Papp(B-A) to Papp(A-B) (efflux ratio): the lower this permeability, the slower the active and passive transport processes of the substance through the monolayer of Caco-2 cells.
In general terms: Passage across Caco-2 layers is used to estimate intestinal permeability.

For the compound `CC(C)(C)[C@H](c1nc(-c2cc(F)ccc2F)cn1Cc1ccccc1)N(CC[C@H](N)C(=O)N[C@H]1CCC[C@H]1C(=O)NCCN1C(=O)CC(SC[C@H](N)C(=O)O)C1=O)C(=O)CO` (stereo partly drawn) [Example 67, S-{1-[2-({[(1R,2S)-2-({(2S)-2-Amino-4-[{(1R)-1-[1-benzyl-4-(2,5-difluorophenyl)-1H-imidazol-2-yl]-2,2-dimethylpropyl}(glycoloyl)amino]butanoyl}amino)cyclopentyl]carbonyl}amino)ethyl]-2,5-dioxopyrrolidin-3-yl}-L-cysteine], the IC50 (usually the concentration needed to halve the response being measured) in data set [1] was determined as 8.07 nM. Also, in data set [2], the Papp B→A (commonly the apparent permeability from the basolateral to the apical side of a cell layer) at 2 h stood at 2.5 ×10⁻⁶ cm/s and the efflux ratio (as a rule, a quotient of directional permeabilities that is used to spot active efflux) at 2 h is 15.
As for `CC(C)(C)[C@H](c1nc(-c2cc(F)ccc2F)cn1Cc1ccccc1)N(CC[C@H](N)C(=O)NCCC(=O)O)C(=O)CO` [Example 79, N-{(2S)-2-Amino-4-[{(1R)-1-[1-benzyl-4-(2,5-difluorophenyl)-1H-imidazol-2-yl]-2,2-dimethylpropyl}(glycoloyl)amino]butanoyl}-beta-alanine], the Papp B→A at 2 h in data set [2] stood at 5.8 ×10⁻⁶ cm/s.
In data set [1], `CC(C)(C)[C@H](c1nc(-c2cc(F)ccc2F)cn1Cc1ccccc1)N(CC[C@H](N)C(=O)N(N)CC(=O)O)C(=O)CO` [Example 81, (1-{(2S)-2-Amino-4-[{(1R)-1-[1-benzyl-4-(2,5-difluorphenyl)-1H-imidazol-2-yl]-2,2-dimethylpropyl}(glycoloyl)amino]butanoyl}hydrazino)acetic acid/trifluoroacetic acid (1:2)] yielded an IC50 of 1.42 nM.
`C[C@H](NC(=O)CCNC(=O)[C@@H](N)CCN(C(=O)CO)[C@@H](c1nc(-c2cc(F)ccc2F)cn1Cc1ccccc1)C(C)(C)C)C(=O)N[C@@H](CCCNC(N)=O)C(=O)O.O=C(O)C(F)(F)F` [Example 73, N-{(2S)-2-Amino-4-[{(1R)-1-[1-benzyl-4-(2,5-difluorophenyl)-1H-imidazol-2-yl]-2,2-dimethylpropyl}(glycoloyl)amino]butanoyl}-beta-alanyl-L-alanyl-N^5-carbamoyl-L-ornithine/trifluoroacetic acid (1:1)] showed an IC50 in data set [1] of 4.52 nM. Moreover, in data set [2], the Papp B→A at 2 h turned out to be 0.46 ×10⁻⁶ cm/s and the efflux ratio at 2 h was determined as 2.7.
Turning to `CC(C)(C)[C@H](c1cc(-c2cc(F)ccc2F)cn1Cc1ccccc1)N(CC[C@H](N)C(=O)NCCNC(=O)CNC(=O)CC1SC[C@@H](C(=O)O)NC1=O)C(=O)CO` (stereo partly drawn) [Example 256, (3R)-6-{(11S,15R)-11-Amino-15-[1-benzyl-4-(2,5-difluorophenyl)-1H-pyrrol-2-yl]-14-glycoloyl-16,16-dimethyl-2,5,10-trioxo-3,6,9,14-tetraazaheptadec-1-yl}-5-oxothiomorpholine-3-carboxylic acid/trifluoroacetic acid (1:1)], in data set [1], half-maximal inhibition (IC50) required 16.4 nM.
In the case of `CC(C)(C)[C@H](c1nc(-c2cc(F)ccc2F)cn1Cc1ccccc1)N(CC[C@H](N)C(=O)NCCNC(=O)CSC[C@H](N)C(=O)O)C(=O)CO.O=C(O)C(F)(F)F` [Example 97, S-(2-{[2-({(2S)-2-Amino-4-[{(1R)-1-[1-benzyl-4-(2,5-difluorophenyl)-1H-imidazol-2-yl]-2,2-dimethylpropyl}(glycoloyl)amino]butanoyl}amino)ethyl]amino}-2-oxoethyl)-L-cysteine/trifluoroacetic acid (1:1)], the IC50 in data set [1] amounted to 2.13 nM. Besides, in data set [2], the Papp B→A at 2 h was 0.56 ×10⁻⁶ cm/s and the efflux ratio at 2 h was determined as 2.
On to `CC(C)[C@H](N)C(=O)N[C@@H](CCCNC(N)=O)C(=O)NCCCN(C(=O)CO)[C@@H](c1nc(-c2cc(F)ccc2F)cn1Cc1ccccc1)C(C)(C)C` [Example 101, Trifluoroacetic acid/L-valyl-N-{3-[{(1R)-1-[1-benzyl-4-(2,5-difluorophenyl)-1H-imidazol-2-yl]-2,2-dimethylpropyl}(glycoloyl)amino]propyl}-N5-carbamoyl-L-ornithinamide (1:1)], for which half-maximal inhibition in data set [1] (IC50) required 4.28 nM.
Still for that read-out and setting: next, `CC(C)(C)[C@H](c1nc(-c2cc(F)ccc2F)cn1Cc1ccccc1)N(CCCN)C(=O)c1ccc(N)cc1` [Example 95, Trifluoroacetic acid/4-amino-N-(3-aminopropyl)-N-{(1R)-1-[1-benzyl-4-(2,5-difluorophenyl)-1H-imidazol-2-yl]-2,2-dimethylpropyl}benzamide (2:1)]: 3.05 nM; `CC(C)(C)[C@H](c1nc(-c2cc(F)ccc2F)cn1Cc1ccccc1)N(CCCNC(=O)[C@@H](N)CCCNC(N)=O)C(=O)CO` [Example 100, Trifluoroacetic acid/N-{3-[{(1R)-1-[1-benzyl-4-(2,5-difluorophenyl)-1H-imidazol-2-yl]-2,2-dimethylpropyl}(glycoloyl)amino]propyl}-N5-carbamoyl-L-ornithinamide (1:1)]: 5.99 nM.
Regarding `CC(C)(C)[C@H](c1nc(-c2cc(F)ccc2F)cn1Cc1ccccc1)N(CC[C@H](N)C(=O)NN)C(=O)CO.O=C(O)C(F)(F)F` [Example 77, Trifluoroacetic acid/N-[(3S)-3-amino-4-hydrazino-4-oxobutyl]-N-{(1R)-1-[1-benzyl-4-(2,5-difluorophenyl)-1H-imidazol-2-yl]-2,2-dimethylpropyl}-2-hydroxyacetamide (1:1)], in data set [2], the Papp B→A at 2 h was found to be 48 ×10⁻⁶ cm/s and the efflux ratio at 2 h worked out at 47.
In data set [1], `CC(C)(C)[C@H](c1nc(-c2cc(F)ccc2F)cn1Cc1ccccc1)N(CC(CN)CS)C(=O)CO` (single isomer, unassigned; isomer 1) [Example 93] returned an IC50 of 2.52 nM.
Consider `CC(C)(C)[C@H](c1cc(-c2cc(F)ccc2F)cn1Cc1ccccc1)N(CC[C@H](N)C(=O)NCCOCCN1C(=O)CC(SC[C@H](N)C(=O)O)C1=O)C(=O)CO.O=C(O)C(F)(F)F` (stereo partly drawn) [Example 251, S-(1-{2-[2-({(2S)-2-Amino-4-[{(1R)-1-[1-benzyl-4-(2,5-difluorophenyl)-1H-pyrrol-2-yl]-2,2-dimethylpropyl}(glycoloyl)amino]butanoyl}amino)ethoxy]ethyl}-2,5-dioxopyrrolidin-3-yl)-L-cysteine/trifluoroacetic acid (1:1)], for which the Papp B→A at 2 h in data set [2] is 2.1 ×10⁻⁶ cm/s.
As to `CC(C)(C)[C@H](c1nc(-c2cc(F)ccc2F)cn1Cc1ccccc1)N(CC(CN)CS)C(=O)CO` (single isomer, unassigned; isomer 2) [Example 94], inhibition in data set [1] was half-maximal at 5.14 nM (IC50).
Regarding `CC(C)(C)[C@H](c1nc(-c2cc(F)ccc2F)cn1Cc1ccccc1)N(CC[C@H](N)C(=O)NCCOCCN1C(=O)CC(SC[C@H](N)C(=O)O)C1=O)C(=O)CO` (some centres unmarked) [Example 62], in data set [2], the Papp B→A at 2 h worked out at 5 ×10⁻⁶ cm/s and the efflux ratio at 2 h was determined as 6.
In data set [1], `CC(C)(C)[C@H](c1cc(-c2cc(F)ccc2F)cn1Cc1ccccc1)N(CC[C@H](N)C(=O)NCC(=O)O)C(=O)CO` [Example 203, N-{(2S)-2-Amino-4-[{(1R)-1-[1-benzyl-4-(2,5-difluorophenyl)-1H-pyrrol-2-yl]-2,2-dimethylpropyl}(glycoloyl)amino]butanoyl}glycine/trifluoroacetic acid (1:1)] registered an IC50 of 0.23 nM.
The same measure, in the same setting: the same measure for `CC(C)(C)[C@H](c1cc(-c2cc(F)ccc2F)cn1Cc1ccccc1)N(CC[C@H](N)C(=O)N[C@@H](CO)C(=O)O)C(=O)CO` [Example 201, N-{(2S)-2-Amino-4-[{(1R)-1-[1-benzyl-4-(2,5-difluorophenyl)-1H-pyrrol-2-yl]-2,2-dimethylpropyl}(glycoloyl)amino]butanoyl}-L-serine/trifluoroacetic acid (1:1)]: 0.179 nM.
For `CC(C)(C)[C@H](c1nc(-c2cc(F)ccc2F)cn1Cc1ccccc1)N(CC[C@H](N)C(=O)NCCN1C(=O)CC(SC[C@H](N)C(=O)O)C1=O)C(=O)CO` (stereo partly drawn) [Example 61, S-{1-[2-({(2S)-2-Amino-4-[{(1R)-1-[1-benzyl-4-(2,5-difluorophenyl)-1H-imidazol-2-yl]-2,2-dimethylpropyl}(glycoloyl)amino]butanoyl}amino)ethyl]-2,5-dioxopyrrolidin-3-yl}-L-cysteine], in data set [2], the apparent permeability from basolateral to apical (Papp B→A) at 2 h is 4.4 ×10⁻⁶ cm/s and the efflux ratio at 2 h amounted to 7.4.
